In brackets after ≈: the same amount, converted by molar mass.
Columns and labels:
[1] = format: physicochemical
Method: Vehicles were evaluated for their capacity to solubilize a cyclic urea compound. Several methods were used. In Method A, vehicles were heated to 70°-80° C. and weighed amounts of the cyclic urea compound were added incrementally until the compound no longer dissolved. This is a visual estimation of solubility. In Method B, vehicles were prepared as in Method A, then cooled to room temperature, and then reheated to 50° C. Suspensions were filtered at 50° C. and compound concentrations in the liltrate filtrate were measured using a high performance liquid chromatographic (HPLC) method, providing the results shown under Method B.
Specifically, the vehicles of Table 1 were prepared and evaluated for solubility of a cyclic urea antiviral agent. The agent for Example 1 was [4R--(4a, 5a, 6β, 7β)]-hexahydro-5,6-bis(hydroxy)-1,3-bis([(4-hydroxymethyl)phenyl]methyl)-4,7-bis(phenylmethyl)-2H-1,3-diazepin-2-one. This compound corresponds to Ex. No. 5U in the above-cited PCT Application WO 93/07128, and is sometimes hereinafter referred to as Ex. No. 5U. In Table 1, all percentages are by weight.

physchem = format: physicochemical
Description: The cyclic urea antiviral agents of this invention are generally poorly water-soluble. Poor water solubility could be related to low oral bioavailability and dose-related bioavailability. One effect of the formulation ingredients may be to alter water solubility. Water solubility in the presence of dilute concentrations of the formulation ingredients could then be related to oral bioavailability. Dilute formulation ingredients could mimic the dilution of an administered dosage form upon reaching the aqueous environment within the gastrointestinal tract. Aqueous solubility studies of cyclic urea antiviral agents were performed in the presence of dilute concentrations of possible formulation ingredients in this Example 4.
Specifically, aqueous solutions were prepared containing 4% (w/v) of the formulation ingredients listed. Excess solid compound [4R-(4α, 5α, 6β, 7β)]-hexahydro-5,6-bis (hydroxy)-1,3-bis ([(4-hydroxymethyl)phenyl]methyl)-4,7-bis (phenylmethyl)-2H-1,3-diazepin-2-one (Ex. No. 5U) was added and the samples were mixed 24 hours. Samples were filtered, and Ex. No. 5U solubility was determined by measuring filtrate drug concentrations using HPLC.

[2] = in vivo; cited from earlier work

solubility in vehicle (in words) [1] | solubility at 24 h (physchem; 4% peg-60 hydrogenated castor oil, organic solvent or mixture) | solubility at 24 h (physchem; water) | solubility at 24 h (physchem; water with 4% peg-8, organic solvent or mixture) | solubility at 24 h (physchem; water, 4% gelucire 44/14) | solubility at 24 h (physchem; water, 4% glycerol dilaurate, organic solvent or mixture) | solubility at 24 h (physchem; water, 4% labrasol) | solubility at 24 h (physchem; water, 4% peg-4 laurate, organic solvent or mixture) | solubility at 24 h (physchem; water, 4% peg-8 laurate, organic solvent or mixture) | solubility at 24 h (physchem; water, 4% peg-8 stearate, organic solvent or mixture) | solubility at 24 h (physchem; water, 4% peg-40 stearate, organic solvent or mixture) | Compound | oral bioavailability (in words) [2]
increased solubility | 0.715 mg/mL (≈ 1260 µM) | 0.005 mg/mL (≈ 8.82 µM) | 0.012 mg/mL (≈ 21.2 µM) | 0.758 mg/mL (≈ 1340 µM) | 0.011 mg/mL (≈ 19.4 µM) | 0.41 mg/mL (≈ 723 µM) | 0.081 mg/mL (≈ 143 µM) | 0.283 mg/mL (≈ 499 µM) | 0.044 mg/mL (≈ 77.6 µM) | 0.718 mg/mL (≈ 1270 µM) | O=C1N(Cc2ccc(CO)cc2)[C@H](Cc2ccccc2)[C@H](O)[C@@H](O)[C@@H](Cc2ccccc2)N1Cc1ccc(CO)cc1 [Ex. No. 5U, [4R-(4α, 5α, 6β, 7β)]-hexahydro-5,6-bis(hydroxy)-1,3-bis([(4-hydroxymethyl)phenyl]methyl)-4,7-bis(phenylmethyl)-2H-1,3-diazepin-2-one] | 
 |  |  |  |  |  |  |  |  |  |  | COC1=CC(=O)C[C@@H](C)[C@]12Oc1c(Cl)c(OC)cc(OC)c1C2=O [griseofulvin] | increased
